Results taken from publication PMC7385619, “A triple action CDK4/6-PI3K-BET inhibitor with augmented cancer cell cytotoxicity” (Cell Discovery, 2020).
Like-named read-outs stand apart in the source and are kept apart here.

Assays:
Assay in all cases: KINOMEscan assay (Eurofins DiscoverX)
Assay type in all cases: binding
kinome (kinase panel) [1] = molecular target: T1, kinome (kinase panel) (Homo sapiens, UniProt Q9BQI3); details: EIF2AK1; 1000 nM; read-out: Percent Control
T1 construct: purchased Eurofins DiscoverX

kinome (kinase panel) [2] = molecular target: T2, kinome (kinase panel) (Homo sapiens, UniProt Q8TBX8); details: PIP5K2C (Entrez PIP4K2C); 1000 nM; read-out: Percent Control
T2 construct: purchased Eurofins DiscoverX

kinome (kinase panel) [3] = molecular target: T3, kinome (kinase panel) (Homo sapiens, UniProt P00533, L861Q); details: […]; 1000 nM; read-out: Percent Control
T3 construct: purchased Eurofins DiscoverX

kinome (kinase panel) [4] = molecular target: T4, kinome (kinase panel) (Homo sapiens, UniProt P07333); details: 1000 nM, read-out: Percent Control
T4 construct: purchased Eurofins DiscoverX
T4 sequence (P07333 20-972): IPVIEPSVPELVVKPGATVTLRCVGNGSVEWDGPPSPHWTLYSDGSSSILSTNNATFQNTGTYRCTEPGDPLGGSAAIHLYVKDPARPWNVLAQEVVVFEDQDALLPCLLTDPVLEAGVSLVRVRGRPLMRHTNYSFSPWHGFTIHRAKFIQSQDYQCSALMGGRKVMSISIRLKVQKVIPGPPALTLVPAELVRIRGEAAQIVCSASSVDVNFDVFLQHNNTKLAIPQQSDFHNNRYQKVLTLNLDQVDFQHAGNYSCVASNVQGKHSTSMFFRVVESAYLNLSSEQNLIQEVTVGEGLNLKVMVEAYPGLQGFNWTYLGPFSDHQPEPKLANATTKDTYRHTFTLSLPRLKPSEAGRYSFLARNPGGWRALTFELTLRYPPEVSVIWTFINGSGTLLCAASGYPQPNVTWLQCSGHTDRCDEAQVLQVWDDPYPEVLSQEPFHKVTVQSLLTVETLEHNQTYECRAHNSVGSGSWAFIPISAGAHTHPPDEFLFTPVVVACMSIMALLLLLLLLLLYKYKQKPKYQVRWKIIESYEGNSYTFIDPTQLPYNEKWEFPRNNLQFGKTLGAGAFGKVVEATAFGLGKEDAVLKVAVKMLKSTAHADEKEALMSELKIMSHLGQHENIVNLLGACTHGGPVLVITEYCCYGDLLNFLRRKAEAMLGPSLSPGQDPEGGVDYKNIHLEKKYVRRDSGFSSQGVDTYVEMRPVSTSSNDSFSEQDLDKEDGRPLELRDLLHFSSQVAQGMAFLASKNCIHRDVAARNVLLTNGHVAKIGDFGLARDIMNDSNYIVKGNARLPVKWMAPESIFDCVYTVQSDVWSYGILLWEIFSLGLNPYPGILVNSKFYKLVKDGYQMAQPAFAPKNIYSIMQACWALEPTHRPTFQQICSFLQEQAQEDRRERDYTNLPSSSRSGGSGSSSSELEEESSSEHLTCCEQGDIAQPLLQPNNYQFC

kinome (kinase panel) [5] = molecular target: T5, kinome (kinase panel) (Homo sapiens, UniProt Q13976); details: PRKG1; 1000 nM; read-out: Percent Control
T5 construct: purchased Eurofins DiscoverX

kinome (kinase panel) [6] = molecular target: T6, kinome (kinase panel) (Homo sapiens, UniProt P36888, K663Q); details: […]; 1000 nM; read-out: Percent Control
T6 construct: purchased Eurofins DiscoverX

kinome (kinase panel) [7] = molecular target: T7, kinome (kinase panel) (Homo sapiens, UniProt Q8N752); details: CSNK1A1L; 1000 nM; read-out: Percent Control
T7 construct: purchased Eurofins DiscoverX

kinome (kinase panel) [8] = molecular target: T8, kinome (kinase panel) (Homo sapiens, UniProt P28482); details: ERK2 (Entrez MAPK1); 1000 nM; read-out: Percent Control
T8 construct: purchased Eurofins DiscoverX

kinome (kinase panel) [9] = molecular target: T9, kinome (kinase panel) (Homo sapiens, UniProt Q15375); details: EPHA7; 1000 nM; read-out: Percent Control
T9 construct: purchased Eurofins DiscoverX

kinome (kinase panel) [10] = molecular target: T10, kinome (kinase panel) (Homo sapiens, UniProt Q9H3Y6); details: SRMS; 1000 nM; read-out: Percent Control
T10 construct: purchased Eurofins DiscoverX

kinome (kinase panel) [11] = molecular target: T11, kinome (kinase panel) (Homo sapiens, UniProt O14757); details: CHEK1; 1000 nM; read-out: Percent Control
T11 construct: purchased Eurofins DiscoverX

kinome (kinase panel) [12] = molecular target: T12, kinome (kinase panel) (Homo sapiens, UniProt Q13153); details: PAK1; 1000 nM; read-out: Percent Control
T12 construct: purchased Eurofins DiscoverX

kinome (kinase panel) [13] = molecular target: T13, kinome (kinase panel) (Homo sapiens, UniProt Q9Y463); details: DYRK1B; 1000 nM; read-out: Percent Control
T13 construct: purchased Eurofins DiscoverX

kinome (kinase panel) [14] = molecular target: T14, kinome (kinase panel) (Homo sapiens, UniProt Q13882); details: BRK (Entrez PTK6); 1000 nM; read-out: Percent Control
T14 construct: purchased Eurofins DiscoverX

kinome (kinase panel) [15] = molecular target: T15, kinome (kinase panel) (Homo sapiens, UniProt O00444); details: PLK4; 1000 nM; read-out: Percent Control
T15 construct: purchased Eurofins DiscoverX

kinome (kinase panel) [16] = molecular target: T16, kinome (kinase panel) (Homo sapiens, UniProt P51957); details: NEK4; 1000 nM; read-out: Percent Control
T16 construct: purchased Eurofins DiscoverX
T16 sequence (P51957 whole entry): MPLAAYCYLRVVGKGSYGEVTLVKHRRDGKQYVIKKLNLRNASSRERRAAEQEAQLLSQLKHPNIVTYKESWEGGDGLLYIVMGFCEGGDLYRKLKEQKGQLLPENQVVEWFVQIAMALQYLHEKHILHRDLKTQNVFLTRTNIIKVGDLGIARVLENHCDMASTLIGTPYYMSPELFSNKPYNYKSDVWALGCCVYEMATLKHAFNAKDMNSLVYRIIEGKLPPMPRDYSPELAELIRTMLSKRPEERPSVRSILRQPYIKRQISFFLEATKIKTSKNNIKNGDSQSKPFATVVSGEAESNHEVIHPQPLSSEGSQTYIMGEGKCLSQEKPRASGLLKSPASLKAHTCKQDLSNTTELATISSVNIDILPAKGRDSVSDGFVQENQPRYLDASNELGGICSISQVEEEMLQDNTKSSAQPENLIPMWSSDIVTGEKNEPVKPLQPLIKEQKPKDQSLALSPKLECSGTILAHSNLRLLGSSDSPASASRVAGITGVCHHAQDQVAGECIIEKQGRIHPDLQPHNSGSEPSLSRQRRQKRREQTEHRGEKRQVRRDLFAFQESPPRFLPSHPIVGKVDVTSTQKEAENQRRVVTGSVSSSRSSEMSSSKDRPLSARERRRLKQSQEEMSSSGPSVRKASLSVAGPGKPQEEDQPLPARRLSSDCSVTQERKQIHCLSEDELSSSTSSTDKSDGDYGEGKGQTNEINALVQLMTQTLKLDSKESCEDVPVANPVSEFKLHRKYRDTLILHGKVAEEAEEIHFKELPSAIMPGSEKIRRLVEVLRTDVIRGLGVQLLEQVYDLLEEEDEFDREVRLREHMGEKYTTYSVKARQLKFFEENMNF

kinome (kinase panel) [17] = molecular target: T17, kinome (kinase panel) (Homo sapiens, UniProt P04626); details: ERBB2; 1000 nM; read-out: Percent Control
T17 construct: purchased Eurofins DiscoverX
T17 sequence (P04626 23-1255): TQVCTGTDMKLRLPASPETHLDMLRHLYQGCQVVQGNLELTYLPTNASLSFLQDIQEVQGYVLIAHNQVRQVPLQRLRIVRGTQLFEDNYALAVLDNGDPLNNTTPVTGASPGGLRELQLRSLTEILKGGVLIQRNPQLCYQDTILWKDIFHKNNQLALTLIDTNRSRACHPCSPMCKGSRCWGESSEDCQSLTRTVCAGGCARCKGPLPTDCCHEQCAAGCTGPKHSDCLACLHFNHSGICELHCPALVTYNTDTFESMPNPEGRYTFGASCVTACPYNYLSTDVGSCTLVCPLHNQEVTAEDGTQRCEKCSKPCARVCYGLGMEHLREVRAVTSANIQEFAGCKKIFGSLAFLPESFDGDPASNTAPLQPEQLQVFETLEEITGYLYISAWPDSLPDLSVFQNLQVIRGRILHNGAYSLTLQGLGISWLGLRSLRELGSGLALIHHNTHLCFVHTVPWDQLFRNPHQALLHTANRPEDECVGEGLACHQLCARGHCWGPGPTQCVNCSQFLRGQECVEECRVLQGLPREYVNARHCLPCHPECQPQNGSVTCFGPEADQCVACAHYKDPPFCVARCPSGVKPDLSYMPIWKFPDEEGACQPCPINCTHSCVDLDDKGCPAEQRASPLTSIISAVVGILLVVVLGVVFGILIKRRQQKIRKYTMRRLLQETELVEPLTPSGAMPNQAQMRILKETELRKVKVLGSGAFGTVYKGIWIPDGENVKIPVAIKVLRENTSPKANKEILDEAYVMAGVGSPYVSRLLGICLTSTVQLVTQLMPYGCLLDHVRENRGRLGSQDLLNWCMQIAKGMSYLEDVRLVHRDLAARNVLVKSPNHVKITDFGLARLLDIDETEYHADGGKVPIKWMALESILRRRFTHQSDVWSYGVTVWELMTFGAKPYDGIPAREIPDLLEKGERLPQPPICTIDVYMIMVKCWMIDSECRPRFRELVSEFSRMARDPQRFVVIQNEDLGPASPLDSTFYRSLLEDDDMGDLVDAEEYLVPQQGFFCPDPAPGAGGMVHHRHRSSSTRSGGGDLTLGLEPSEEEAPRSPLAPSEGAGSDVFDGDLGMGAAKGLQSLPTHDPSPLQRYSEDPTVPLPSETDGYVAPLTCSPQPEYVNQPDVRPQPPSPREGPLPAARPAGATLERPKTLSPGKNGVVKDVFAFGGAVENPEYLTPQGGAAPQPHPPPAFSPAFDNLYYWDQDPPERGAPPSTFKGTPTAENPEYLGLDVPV

kinome (kinase panel) [18] = molecular target: T18, kinome (kinase panel) (Homo sapiens, UniProt P54762); details: EPHB1; 1000 nM; read-out: Percent Control
T18 construct: purchased Eurofins DiscoverX

kinome (kinase panel) [19] = molecular target: T19, kinome (kinase panel) (Homo sapiens, UniProt Q08345); details: DDR1; 1000 nM; read-out: Percent Control
T19 construct: purchased Eurofins DiscoverX

kinome (kinase panel) [20] = molecular target: T20, kinome (kinase panel) (Homo sapiens, UniProt P43403); details: ZAP70; 1000 nM; read-out: Percent Control
T20 construct: purchased Eurofins DiscoverX

kinome (kinase panel) [21] = molecular target: T21, kinome (kinase panel) (Homo sapiens, UniProt P32298); details: GRK4; 1000 nM; read-out: Percent Control
T21 construct: purchased Eurofins DiscoverX

kinome (kinase panel) [22] = molecular target: T22, kinome (kinase panel) (Homo sapiens, UniProt Q96Q40); details: PFTAIRE2 (Entrez CDK15); 1000 nM; read-out: Percent Control
T22 construct: purchased Eurofins DiscoverX

kinome (kinase panel) [23] = molecular target: T23, kinome (kinase panel) (Homo sapiens, UniProt P57058); details: HUNK; 1000 nM; read-out: Percent Control
T23 construct: purchased Eurofins DiscoverX

kinome (kinase panel) [24] = molecular target: T24, kinome (kinase panel) (Homo sapiens, UniProt Q56UN5); details: YSK4 (MAP3K19); 1000 nM; read-out: Percent Control
T24 construct: purchased Eurofins DiscoverX

kinome (kinase panel) [25] = molecular target: T25, kinome (kinase panel) (Homo sapiens, UniProt Q13131); details: AMPK-alpha1 (Entrez PRKAA1); 1000 nM; read-out: Percent Control
T25 construct: purchased Eurofins DiscoverX

kinome (kinase panel) [26] = molecular target: T26, kinome (kinase panel) (Homo sapiens, UniProt O60331); details: PIP5K1C; 1000 nM; read-out: Percent Control
T26 construct: purchased Eurofins DiscoverX

kinome (kinase panel) [27] = molecular target: T27, kinome (kinase panel) (Homo sapiens, UniProt Q9Y2U5); details: MAP3K2; 1000 nM; read-out: Percent Control
T27 construct: purchased Eurofins DiscoverX
T27 sequence (Q9Y2U5 whole entry): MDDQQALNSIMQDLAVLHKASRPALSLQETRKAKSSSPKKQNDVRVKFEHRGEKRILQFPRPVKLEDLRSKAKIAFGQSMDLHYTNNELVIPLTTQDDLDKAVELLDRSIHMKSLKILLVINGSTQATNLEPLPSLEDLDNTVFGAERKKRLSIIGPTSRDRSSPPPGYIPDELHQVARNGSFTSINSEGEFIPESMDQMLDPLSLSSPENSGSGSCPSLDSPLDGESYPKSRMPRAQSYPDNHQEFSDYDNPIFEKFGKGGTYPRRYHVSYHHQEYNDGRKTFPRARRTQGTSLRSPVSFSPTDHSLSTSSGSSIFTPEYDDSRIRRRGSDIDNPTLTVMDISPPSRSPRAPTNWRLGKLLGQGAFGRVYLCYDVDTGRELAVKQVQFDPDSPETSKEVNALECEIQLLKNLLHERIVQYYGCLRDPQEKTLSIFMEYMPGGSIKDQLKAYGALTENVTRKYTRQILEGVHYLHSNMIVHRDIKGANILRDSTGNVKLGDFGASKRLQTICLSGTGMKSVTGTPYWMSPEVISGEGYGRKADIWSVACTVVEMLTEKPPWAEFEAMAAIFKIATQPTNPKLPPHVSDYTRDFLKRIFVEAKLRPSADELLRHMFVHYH

kinome (kinase panel) [28] = molecular target: T28, kinome (kinase panel) (Homo sapiens, UniProt Q12866); details: MERTK; 1000 nM; read-out: Percent Control
T28 construct: purchased Eurofins DiscoverX

kinome (kinase panel) [29] = molecular target: T29, kinome (kinase panel) (Homo sapiens, UniProt P00519); details: 1000 nM, read-out: Percent Control
T29 construct: purchased Eurofins DiscoverX
T29 sequence (P00519 whole entry): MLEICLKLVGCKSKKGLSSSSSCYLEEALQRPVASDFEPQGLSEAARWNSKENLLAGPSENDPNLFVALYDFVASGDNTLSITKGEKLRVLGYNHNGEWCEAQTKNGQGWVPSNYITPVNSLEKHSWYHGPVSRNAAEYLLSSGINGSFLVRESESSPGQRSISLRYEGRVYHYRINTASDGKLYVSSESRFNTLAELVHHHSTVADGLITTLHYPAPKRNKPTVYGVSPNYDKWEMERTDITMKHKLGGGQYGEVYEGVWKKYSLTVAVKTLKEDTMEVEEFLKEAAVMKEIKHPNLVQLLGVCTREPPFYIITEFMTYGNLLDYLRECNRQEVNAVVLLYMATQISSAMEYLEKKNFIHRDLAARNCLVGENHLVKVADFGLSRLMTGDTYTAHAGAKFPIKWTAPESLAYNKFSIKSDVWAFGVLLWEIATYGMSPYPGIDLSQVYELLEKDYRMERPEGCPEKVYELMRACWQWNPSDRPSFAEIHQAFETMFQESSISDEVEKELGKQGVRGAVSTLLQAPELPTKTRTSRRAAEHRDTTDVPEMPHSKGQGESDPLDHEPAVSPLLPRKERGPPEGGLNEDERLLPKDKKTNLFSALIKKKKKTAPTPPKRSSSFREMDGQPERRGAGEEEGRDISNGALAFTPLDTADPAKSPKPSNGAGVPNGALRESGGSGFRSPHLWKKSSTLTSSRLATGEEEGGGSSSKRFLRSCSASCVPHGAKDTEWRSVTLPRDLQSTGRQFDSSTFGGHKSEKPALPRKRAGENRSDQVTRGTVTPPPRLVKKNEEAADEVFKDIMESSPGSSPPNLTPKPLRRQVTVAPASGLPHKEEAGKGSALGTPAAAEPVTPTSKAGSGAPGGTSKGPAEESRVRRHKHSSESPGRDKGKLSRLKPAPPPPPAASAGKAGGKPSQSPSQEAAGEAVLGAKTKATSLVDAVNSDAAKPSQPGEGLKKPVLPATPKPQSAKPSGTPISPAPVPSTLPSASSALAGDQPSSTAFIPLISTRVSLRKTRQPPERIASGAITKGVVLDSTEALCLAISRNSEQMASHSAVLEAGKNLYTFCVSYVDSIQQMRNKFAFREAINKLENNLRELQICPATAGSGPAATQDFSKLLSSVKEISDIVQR

kinome (kinase panel) [30] = molecular target: T30, kinome (kinase panel) (Homo sapiens, UniProt P10721, D816H); details: […]; 1000 nM; read-out: Percent Control
T30 construct: purchased Eurofins DiscoverX

kinome (kinase panel) [31] = molecular target: T31, kinome (kinase panel) (Homo sapiens, UniProt P36888, R834Q); details: […]; 1000 nM; read-out: Percent Control
T31 construct: purchased Eurofins DiscoverX

kinome (kinase panel) [32] = molecular target: T32, kinome (kinase panel) (Homo sapiens, UniProt P45984); details: JNK2 (Entrez MAPK9); 1000 nM; read-out: Percent Control
T32 construct: purchased Eurofins DiscoverX

CN(C)C(=O)c1cc2cnc(Nc3ccc(-c4csc5c(=O)cc(N6CCOCC6)oc45)cc3)nc2n1C1CCCC1 [SRX3177]
remaining binding at 1 µM (kinome (kinase panel) [1]): 79%
remaining binding at 1 µM (kinome (kinase panel) [2]): 1.8%
remaining binding at 1 µM (kinome (kinase panel) [3]): 74%
remaining binding at 1 µM (kinome (kinase panel) [4]; CSF1R-autoinhibited): 60%
remaining binding at 1 µM (kinome (kinase panel) [4]; CSF1R): 100%
remaining binding at 1 µM (kinome (kinase panel) [5]): 100%
remaining binding at 1 µM (kinome (kinase panel) [6]): 93%
remaining binding at 1 µM (kinome (kinase panel) [7]): 100%
remaining binding at 1 µM (kinome (kinase panel) [8]): 100%
remaining binding at 1 µM (kinome (kinase panel) [9]): 100%
remaining binding at 1 µM (kinome (kinase panel) [10]): 92%
remaining binding at 1 µM (kinome (kinase panel) [11]): 100%
remaining binding at 1 µM (kinome (kinase panel) [12]): 90%
remaining binding at 1 µM (kinome (kinase panel) [13]): 56%
remaining binding at 1 µM (kinome (kinase panel) [14]): 100%
remaining binding at 1 µM (kinome (kinase panel) [15]): 60%
remaining binding at 1 µM (kinome (kinase panel) [16]): 89%
remaining binding at 1 µM (kinome (kinase panel) [17]): 76%
remaining binding at 1 µM (kinome (kinase panel) [18]): 100%
remaining binding at 1 µM (kinome (kinase panel) [19]): 72%
remaining binding at 1 µM (kinome (kinase panel) [20]): 100%
remaining binding at 1 µM (kinome (kinase panel) [21]): 39%
remaining binding at 1 µM (kinome (kinase panel) [22]): 90%
remaining binding at 1 µM (kinome (kinase panel) [23]): 100%
remaining binding at 1 µM (kinome (kinase panel) [24]): 65%
remaining binding at 1 µM (kinome (kinase panel) [25]): 100%
remaining binding at 1 µM (kinome (kinase panel) [26]): 87%
remaining binding at 1 µM (kinome (kinase panel) [27]): 72%
remaining binding at 1 µM (kinome (kinase panel) [28]): 86%
remaining binding at 1 µM (kinome (kinase panel) [29]; ABL1-nonphosphorylated): 78%
remaining binding at 1 µM (kinome (kinase panel) [29]; ABL1-phosphorylated): 63%
remaining binding at 1 µM (kinome (kinase panel) [30]): 28%
remaining binding at 1 µM (kinome (kinase panel) [31]): 38%
remaining binding at 1 µM (kinome (kinase panel) [32]): 47%
